Consider 11 compounds from ChEMBL document CHEMBL1201862, “PubChem BioAssay data set” (2004).

Test systems include CCRF-CEM; COLO 205; SN12C; SNB-75; ACHN; NCI/ADR-RES; OVCAR-4; HT-29; KM12; NCI-H522; HCC 2998; U-251; TK-10; OVCAR-5; RXF 393; SR; CAKI-1; MOLT-4; UACC-257; SF-539.
Holding throughout (assay): NCI-60 cell line screen, 48 h

Structures are written as SMILES.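 Each compound was tested at five concentrations against cells in 96-well plates for 48 hours. GI50 marks 50% less growth.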 Activity calls are given as the source filed them. No stated cut-off is given here; in the data, active = GI50 up to about 1.1 µM and inactive = higher.

With `NC(=O)C1CCCN1C(=O)C(Cc1c[nH]cn1)NC(=O)C1CCCC1` (configuration not stated), the GI50 in the assay with CCRF-CEM, with COLO 205, in the assay with SN12C, in the assay on SNB-75, in the assay with ACHN and in the assay on NCI/ADR-RES was > 100 µM (inactive) throughout. Also, the GI50 in the assay with OVCAR-4, in the assay with HT-29, in the assay with KM12, in the assay with NCI-H522, in the assay on HCC 2998 and with U-251 was > 100 µM (inactive) throughout. Besides, the GI50 in the assay with TK-10, with OVCAR-5, in the assay on RXF 393, in the assay on SR, in the assay with CAKI-1 and with MOLT-4 was > 100 µM (inactive) throughout.
As for `C=CCn1c(-c2ccc(Cl)cc2)cs/c1=N\c1ccccc1OC`, the GI50 is 8.55 µM (inactive) in the assay with CCRF-CEM; 35.8 µM (inactive) in the assay with COLO 205; > 100 µM (inactive) in the assay on SN12C; > 33.3 µM (inactive) in the assay on SNB-75; > 100 µM (inactive) in the assay with ACHN; 6.5 µM (inactive) with NCI/ADR-RES. Also, the GI50 is > 58.5 µM (inactive) in the assay with OVCAR-4; 7.46 µM (inactive) in the assay on UACC-257; 15.8 µM (inactive) in the assay with KM12; > 100 µM (inactive) with HCC 2998; > 69.5 µM (inactive) with U-251; > 100 µM (inactive) in the assay on TK-10. Besides, the GI50 in the assay on OVCAR-5 was > 59.3 µM (inactive); with RXF 393, > 100 µM (inactive); with SR, 0.195 µM (active); in the assay with CAKI-1, > 45.2 µM (inactive); with MOLT-4, 0.179 µM (active); in the assay on SF-539, > 76.7 µM (inactive).
As for `C=C1C[C@@H]2CC[C@@]34CC5O[C@H]6C(O[C@H]7CC[C@H](CC(=O)O[C@@H]8[C@@H](C)[C@@H]9O[C@@H]%10C[C@]%11(C[C@@H]%12O[C@]%13(C[C@H](C)[C@@H]%14O[C@@H]%15CC(C(O)CO)O[C@@H]%15C[C@@H]%14O%13)C[C@H](C)[C@@H]%12O%11)O[C@@H]%10C[C@@H]9O[C@H]8CC8O[C@@H](CC[C@@H]1O2)C[C@@H](C)C8(O)CO)O[C@@H]7[C@@H]6O3)[C@H]5O4` (some centres not stated), the GI50 in the assay with CCRF-CEM is > 1 µM (active); in the assay with COLO 205, > 0.65 µM (active); with SN12C, > 1 µM (active); with SNB-75, 0.294 µM (active); with ACHN, > 1 µM (active); in the assay with NCI/ADR-RES it was > 1 µM (active). For the same compound, the GI50 was > 1 µM (active) in the assay on OVCAR-4; > 1 µM (active) in the assay on UACC-257; > 0.726 µM (active) in the assay with KM12; 0.184 µM (active) in the assay with NCI-H522; > 1 µM (active) in the assay on HCC 2998; > 1 µM (active) in the assay with U-251. The GI50 in the assay with TK-10 is > 0.45 µM (active); in the assay on OVCAR-5, > 1 µM (active); in the assay on RXF 393, 0.516 µM (active); in the assay on SR, > 0.625 µM (active); with CAKI-1, > 1 µM (active); in the assay with MOLT-4, > 1 µM (active).
On to `Nc1ncnc2c1ncn2C1OC(C(=O)OCCO)C(O)C1O` (configuration not stated), for which the GI50 with CCRF-CEM, with COLO 205, in the assay with SN12C, in the assay on SNB-75, with ACHN and with NCI/ADR-RES was > 100 µM (inactive) in each case. The GI50 in the assay with OVCAR-4, in the assay with HT-29, in the assay on UACC-257, in the assay on KM12, with NCI-H522 and in the assay with U-251 was > 100 µM (inactive) each time. The GI50 in the assay on TK-10, with OVCAR-5, with RXF 393, in the assay with SR, in the assay on CAKI-1 and in the assay on MOLT-4 was > 100 µM (inactive) in each case. Also, the GI50 in the assay with SF-539 was > 100 µM (inactive).
Turning to `CN(C)c1nc2nonc2nc1Nc1ccccc1`, the GI50 in the assay with CCRF-CEM, with COLO 205, with SN12C, in the assay on SNB-75, with ACHN and with NCI/ADR-RES was > 100 µM (inactive) in each case. For the same compound, the GI50 with HT-29, in the assay on UACC-257, in the assay on NCI-H522, with HCC 2998, with U-251 and with TK-10 was > 100 µM (inactive) throughout. For the same compound, the GI50 with OVCAR-5, with RXF 393, in the assay on SR and in the assay on MOLT-4 was > 100 µM (inactive) in each case.
On to `Cc1ccc(SC[C@@]2(C(F)F)NC(=O)NC2=O)cc1`, for which the GI50 in the assay with CCRF-CEM, with COLO 205, with SNB-75, in the assay on ACHN, in the assay on NCI/ADR-RES and in the assay with OVCAR-4 was > 100 µM (inactive) each time. The GI50 with HT-29, in the assay on UACC-257, in the assay on KM12, in the assay on NCI-H522, in the assay on HCC 2998 and with U-251 was > 100 µM (inactive) in each case. The GI50 in the assay on TK-10, in the assay with OVCAR-5, in the assay with RXF 393, in the assay with SR, in the assay with CAKI-1 and in the assay on MOLT-4 was > 100 µM (inactive) each time.
Regarding `OCc1cc2c(ccc3sc4ccc5sc6ccc7ncccc7c6c5c4c32)s1`, the GI50 with CCRF-CEM was 19.7 µM (inactive); with COLO 205 it was 2.72 µM (inactive); in the assay with SN12C it was 11 µM (inactive); in the assay on SNB-75, 3.89 µM (inactive); in the assay on ACHN, 31.6 µM (inactive); in the assay with NCI/ADR-RES, 21.7 µM (inactive). Moreover, the GI50 with OVCAR-4 was 25.2 µM (inactive); in the assay with HT-29, 15.5 µM (inactive); in the assay with UACC-257, 13.6 µM (inactive); with KM12, 6.47 µM (inactive); in the assay on NCI-H522, 11 µM (inactive); in the assay with U-251, 28.4 µM (inactive). The GI50 with TK-10 is 31.8 µM (inactive); in the assay with OVCAR-5 it was 15.3 µM (inactive); with RXF 393, 11.7 µM (inactive); in the assay on SR it was 10.5 µM (inactive); in the assay with CAKI-1, 10.6 µM (inactive); in the assay with MOLT-4 it was 11.5 µM (inactive). In addition, the GI50 with SF-539 was 14.4 µM (inactive).
For `CC(O)C1(CNc2cc(Cl)nc(N)n2)CCCCC1` (configuration not stated), the GI50 in the assay on CCRF-CEM was 97.5 µM (inactive); in the assay with COLO 205 it was > 100 µM (inactive); with SN12C, 82.6 µM (inactive); in the assay with SNB-75 it was 69.5 µM (inactive); in the assay on ACHN, > 100 µM (inactive); with NCI/ADR-RES it was 58.2 µM (inactive). The GI50 in the assay with OVCAR-4 was 37.3 µM (inactive); in the assay on HT-29, > 100 µM (inactive); in the assay on UACC-257, 84.9 µM (inactive); in the assay on KM12, 85.3 µM (inactive); with NCI-H522 it was 55.7 µM (inactive); with U-251, > 100 µM (inactive). Also, the GI50 in the assay with TK-10 was > 100 µM (inactive); with OVCAR-5 it was > 100 µM (inactive); in the assay on RXF 393, > 100 µM (inactive); in the assay with SR it was 66.1 µM (inactive); with CAKI-1, > 100 µM (inactive); with MOLT-4, 35.6 µM (inactive). Besides, in the assay with SF-539, the GI50 is > 100 µM (inactive).
As to `CO/C(=N\N=C(/C)C(F)(F)F)c1ccncc1`, the GI50 in the assay on CCRF-CEM, with COLO 205, in the assay on SN12C, with SNB-75, in the assay with NCI/ADR-RES and in the assay on OVCAR-4 was > 100 µM (inactive) in each case. Besides, the GI50 with HT-29, with KM12, in the assay with NCI-H522, with U-251, in the assay on OVCAR-5 and in the assay with RXF 393 was > 100 µM (inactive) each time. The GI50 was > 100 µM (inactive) with SR, > 100 µM (inactive) in the assay on CAKI-1 and 44.5 µM (inactive) with MOLT-4.
Turning to `C(/C=N/c1ccccc1)=C(/Nc1ccccc1)c1ccc2ccccc2c1`, the GI50 in the assay with CCRF-CEM was 1.1 µM (active); with COLO 205 it was 1.85 µM (inactive); in the assay on SN12C, 1.6 µM (inactive); in the assay with SNB-75, 1.64 µM (inactive); in the assay on ACHN, 2.39 µM (inactive); in the assay on NCI/ADR-RES, 1.5 µM (inactive). Also, the GI50 is 1.99 µM (inactive) with OVCAR-4; 1.77 µM (inactive) with HT-29; 4.55 µM (inactive) in the assay with UACC-257; 1.78 µM (inactive) with KM12; 3.87 µM (inactive) in the assay with NCI-H522; 2.65 µM (inactive) in the assay on U-251. The GI50 with TK-10 is 1.45 µM (inactive); with OVCAR-5, 2.51 µM (inactive); in the assay with RXF 393 it was 1.66 µM (inactive); in the assay on SR, 0.676 µM (active); with CAKI-1, 0.667 µM (active); in the assay on MOLT-4, 1 µM (active). In the assay on SF-539, the GI50 is 1.83 µM (inactive).
Consider `COc1ccc(C2OC[C@H]3O[C@@H](OCc4ccccc4)[C@H](O)[C@@H](O)[C@@H]3O2)cc1` (some centres not stated), for which the GI50 in the assay with CCRF-CEM was 52.7 µM (inactive); in the assay on COLO 205, > 100 µM (inactive); in the assay with SN12C, > 100 µM (inactive); with SNB-75, 2.29 µM (inactive); with ACHN, > 100 µM (inactive); in the assay on NCI/ADR-RES it was > 100 µM (inactive). Also, the GI50 was 84.5 µM (inactive) in the assay with OVCAR-4; > 100 µM (inactive) in the assay with HT-29; > 100 µM (inactive) in the assay on UACC-257; > 100 µM (inactive) with HCC 2998; > 100 µM (inactive) with U-251; > 100 µM (inactive) in the assay on TK-10. For the same compound, the GI50 is > 100 µM (inactive) with OVCAR-5; > 100 µM (inactive) in the assay on RXF 393; 67.9 µM (inactive) in the assay with SR; > 100 µM (inactive) in the assay on CAKI-1; 41.9 µM (inactive) in the assay with MOLT-4; > 100 µM (inactive) with SF-539.
